Like-named read-outs stand apart in the source and are kept apart here.
What was measured:
[1] = Metabolite profiling of pooled feces extracts by radio-HPLC (Group 2); assay type: in vivo, rat
Experimental: (§1) Metabolite profiling was performed by HPLC analysis according to the company’s SOP of plasma (Group 3), urine (Group 2) and feces (Group 2) samples. Briefly, for metabolite profiling and identification, radioactivity (cpm) was measured in HPLC eluent fractions that had previously been collected at 12 s intervals for the duration of the run (65 min) into 96-well Deep Well LumaPlates and dried in a centrifugal evaporator. A Microbeta2 scintillation counter was used to count each plate, with wells simultaneously counted for 2 min, after an initial 5 min delay. A subsample of plasma was analyzed (ca 2 ml) taken from individual animals to provide representative samples, for each sex, at 2, 8 and 168 h post dose (n = 6). Equal proportions of the total urine weight voided from Group 2 animals was pooled to provide representative samples for each sex at 0–6 h, 6–24 h and 24–48 h post dose (n = 6). Equal proportions of the total feces homogenate generated from the samples voided by the three rats (Group 2) were pooled to provide representative samples for each sex at 0–24 and 24–48 h post dose ([…]). Sample preparation was carried out due to the company’s SOPs (see Supplementary Methods). The extractability was ≥95.0% (95.0–100%) TRR (Total Radioactive Residue) for plasma and ≥88.3% (88.3%–91.3%) TRR for feces. As reference, a standard solution of zapnometinib (0.1 mg/ml in acetonitrile) was used. To assess HPLC method suitability, a column recovery was assessed on each representative sample (one per matrix). The recovery of radioactivity from the HPLC column was determined by collecting the column eluent, following an injection of a representative sample (one per matrix), and determining the radioactive content by submitting aliquots for LSC analysis. The results of these analyses were between 93.8%–105.1% column recoveries.
Next, radioactive metabolic components of zapnometinib in urine, plasma and feces extracts were isolated and profiled. The components were quantified by fraction collection/scintillation analysis, as appropriate to the radioactivity concentrations. Mass spectroscopy was used to propose identities of the major circulatory and excreted metabolites, and to correlate the metabolites detected in the different matrices. Components identified by LC-MS/MS were related to the quantified HPLC analysis by comparison of related radiochromatograms and comparison of elution order. Representative HPLC radiochromatograms of pooled feces extracts collected during 0–24 and 24–48 h post dose from male and female rats (which reveal the main metabolites) were qualitatively similar with some minor sex differences (Figure 3). […]
times with the following solvents following the same procedure: Extract 2 – Acetonitrile/methanol 4:1 (v/v); Extract 3 – Acetonitrile/Water 1:1 (v/v). Duplicate weighed aliquots of each supernatant (ca 0.1 mL) were mixed directly with Ultima Gold scintillation cocktail for measurement of radioactivity concentrations. The extracted residue was allowed to air dry and the total weight was recorded. Duplicate weighed portions (ca 0.05g) were taken for radioassay after oxidation. The extracts were combined and concentrated under a constant stream of nitrogen gas to near dryness and reconstituted in acetonitrile/0.1% aqueous formic acid, 1:1 (v/v) by vortex mixing, sonication and centrifugation at 10000 × g for 5 min at 4°C.
The concentrates were weighed, and duplicate weighed aliquots (0.025 – 0.05 mL) taken for measurement of radioactivity to calculate recovery following concentration. An aliquot of each concentrated extract was injected into the HPLC. […]
(100 mL) in purified water (600 mL) and methanol (300 mL). After measurement of total sample weight (as appropriate), replicate portions of diluted dose solutions (ca 0.1 mL), plasma (ca 0.05 – 0.25 mL), urine (ca 0.05 – 0.25 mL), expired air trap solution (ca 1 mL) and cage wash (ca 1 mL) were mixed directly with Ultima Gold scintillation cocktail (5 mL; 15 mL for […]

[2] = Metabolite profiling of plasma extracts by radio-HPLC (Group 3); assay type: in vivo, rat; conditions: male plasma
Experimental: as §1
Next, radioactive metabolic components of zapnometinib in urine, plasma and feces extracts were isolated and profiled. The components were quantified by fraction collection/scintillation analysis, as appropriate to the radioactivity concentrations. Mass spectroscopy was used to propose identities of the major circulatory and excreted metabolites, and to correlate the metabolites detected in the different matrices. Components identified by LC-MS/MS were related to the quantified HPLC analysis by comparison of related radiochromatograms and comparison of elution order. Representative HPLC radiochromatograms of pooled feces extracts collected during 0–24 and 24–48 h post dose from male and female rats (which reveal the main metabolites) were qualitatively similar with some minor sex differences (Figure 3).

[3] = design: method as in Wabnitz et al., 2004; conditions: monkey; ref Wabnitz et al., 2004; cited from earlier work
[4] = design: method as in Wabnitz et al., 2004; conditions: rat; ref Wabnitz et al., 2004; cited from earlier work
MEK = tested on: MEK; design: method as in Lorusso et al., 2005; conditions: ref Lorusso et al., 2005; read-out: 50% inhibitory concentration (IC50); cited from earlier work

SMILES	Amount in pooled feces extracts ([1]; 0-24 hours, female rats) [% Dose]	Amount in pooled feces extracts ([1]; 0-24 hours, male rats) [% Dose]	Amount in pooled feces extracts ([1]; 24-48 hours, female rats) [% Dose]	Amount in pooled feces extracts ([1]; Total (0-48 hours), female rats) [% Dose]	Amount in pooled feces extracts ([1]; Total (0-48 hours), male rats) [% Dose]	Amount detected in plasma by mass spectrometry [2]	Renal elimination [3]	Renal elimination [4]	IC50 (MEK) [nM]
CC(C)[C@H](NC(=O)c1ccc(F)c(F)c1Nc1ccc(I)cc1Cl)C(=O)O [M3]	16.10	4.21	2.48	18.58	4.21	trace amounts			
O=C(NOCC1CC1)c1ccc(F)c(F)c1Nc1ccc(I)cc1Cl [CI-1040, 2-(2-chloro-4-iodo-phenylamino)-Ncyclopropylmethoxy-3,4-difluoro-benzamide]							< 5 % of dose	< 5 % of dose	[…]

Reference: PMC9760738, “Pharmacokinetics, absorption, distribution, metabolism and excretion of the MEK inhibitor zapnometinib in rats” (Frontiers in Pharmacology, 2022)
